Consider 13 compounds from patent US20220281886A1, “NATRIURETIC PEPTIDE RECEPTOR A AGONISTS USEFUL FOR THE TREATMENT OF CARDIOMETABOLIC DISEASES, KIDNEY DISEASE AND DIABETES” (Merck Sharp & Dohme Corp., priority 2019, published 2022).

Each structure is given as a SMILES string.

The experiment deals with T1, hNPRA (Homo sapiens, UniProt P16066).
T1 construct: expressed in transfected cells
T1 sequence (P16066 33-1061): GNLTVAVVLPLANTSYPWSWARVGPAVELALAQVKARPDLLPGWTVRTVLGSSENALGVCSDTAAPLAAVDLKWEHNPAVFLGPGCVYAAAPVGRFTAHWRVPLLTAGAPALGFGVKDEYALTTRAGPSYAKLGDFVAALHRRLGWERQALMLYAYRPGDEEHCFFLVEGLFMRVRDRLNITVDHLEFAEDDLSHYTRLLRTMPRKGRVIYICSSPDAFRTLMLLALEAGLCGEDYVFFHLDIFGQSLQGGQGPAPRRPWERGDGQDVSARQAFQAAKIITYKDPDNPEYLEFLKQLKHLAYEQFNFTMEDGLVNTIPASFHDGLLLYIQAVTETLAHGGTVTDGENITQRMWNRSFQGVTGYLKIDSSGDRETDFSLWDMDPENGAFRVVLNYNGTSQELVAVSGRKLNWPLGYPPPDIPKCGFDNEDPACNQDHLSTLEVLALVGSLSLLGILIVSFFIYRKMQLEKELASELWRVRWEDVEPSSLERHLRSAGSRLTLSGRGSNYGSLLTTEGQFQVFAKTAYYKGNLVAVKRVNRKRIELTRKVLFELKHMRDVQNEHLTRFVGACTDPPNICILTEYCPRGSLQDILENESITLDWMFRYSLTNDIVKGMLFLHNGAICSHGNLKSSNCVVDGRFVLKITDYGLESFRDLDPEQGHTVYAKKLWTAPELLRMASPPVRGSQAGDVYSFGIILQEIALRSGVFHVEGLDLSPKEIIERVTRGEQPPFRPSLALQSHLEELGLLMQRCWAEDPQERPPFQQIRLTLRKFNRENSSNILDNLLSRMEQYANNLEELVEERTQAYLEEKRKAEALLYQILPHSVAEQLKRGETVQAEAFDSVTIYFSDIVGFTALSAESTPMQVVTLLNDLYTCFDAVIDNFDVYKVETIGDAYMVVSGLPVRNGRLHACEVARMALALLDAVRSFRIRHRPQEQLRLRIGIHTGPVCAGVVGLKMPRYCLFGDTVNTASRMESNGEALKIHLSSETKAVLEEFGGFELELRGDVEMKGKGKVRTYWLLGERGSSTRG
Nature of the experiment: NPRA Functional Cell Assay (cGMP HTRF). The format is cell-based. The conditions noted are these: Human NPRA HEK JumpIn stable cells; cGMP by HTRF after 1 hour at 37° C.; 10-point dose response. An excerpt: Assay Buffer components HEPES and Opti-MEM® I Reduced-Serum with Glutamine (no phenol red) were from Gibco/Invitrogen (Thermo Fisher Scientific, Waltham, Mass. USA). 3-Isobutyl-1-methylxanthine (IBMX) and 4-(3-Butoxy-4-methoxybenzyl)imidazolidin-2-one (RO20) were obtained from Sigma-Aldrich (St. Louis, Mo., USA). DPBS (Dulbecco's phosphate-buffered saline) without Ca2+ and Mg2+ was purchased from GE Healthcare Bio-Sciences (Pittsburgh, Pa., USA). 384 well white Optiplates were from Perkin Elmer (Atlantic Highlands, N.J., USA). Human ANP (Atrial Natriuretic Peptide) (1-28) was purchased from Sigma-Aldrich (Catalog #A1663) and rat ANP (1-28) from Bachem (Torrance, Calif., USA) (Catalog #H2100). Human-BNP (Human-Brain Natriuretic Peptide) (1-32 AA) was purchased from American Peptide Company (Sunnyvale, Calif., USA) (product No. 14-1-90). cGMP kits were purchased from Cisbio. The assay ready frozen (ARF) Human/rat/dog NPRA HEK JumpIn Stable frozen cells (low passage number 5-11) were prepared in-house.
Test compounds were titrated in DMSO in a 10-point dose response in a separate step followed by a 100-fold dilution into the reaction. Positive response for each assay was determined using 10 nM rat-ANP peptide (rat cells) or 50 nM h-ANP peptide (human and dog cells).
Cells were thawed, washed with DPBS and resuspended in assay buffer (Opti-MEM+Glutamine, phenol red free media, 10 mM HEPES, 100 uM IBMX and 100 uM RO20) that was warmed to 37° C. Cells were then transferred to microplates via a Microplate Combi dispenser at a density of 1500, 400 and 1200 cells/well for human, rat and dog cells respectively, followed by acoustic transfer (Echo) of compound.
Compounds and cells were incubated at 37° C. with 5% CO2 for 1 hour, after which the cells were lysed and cGMP was captured using a CisBio cGMP HTRF assay kit. The TRF signal was measured with an Envision plate reader (emission set to 615 and 665 nm) after 1 hour incubation at ambient temperature. The TRF signal was converted to [cGMP] through the use of a cGMP calibration curve on each microplate. EC50's were generated from the resulting dose response curves by use of a 4 parameter logistic algorithm.
Assay Buffer components HEPES and Opti-MEM® I Reduced-Serum with Glutamine (no phenol red) were from Gibco/Invitrogen. 3-Isobutyl-1-methylxanthine (IBMX) and 4-(3-Butoxy-4-methoxybenzyl)imidazolidin-2-one (RO20) were obtained from Sigma. DPBS (Dulbecco's phosphate-buffered saline) without Ca2+ and Mg2+ was purchased from GE Healthcare Bio-Sciences (Pittsburgh, Pa., USA). 384 well white Optiplates were from Perkin Elmer (Atlantic Highlands, N.J., USA). Human ANP (1-28) was purchased from Sigma (A1663) and rat ANP (1-28) from Bachem (H2100). Human-BNP (1-32 AA) was purchased from American Peptide Company (Sunnyvale, Calif., USA) (product No. 14-1-90). cGMP kits were purchased from Cisbio (Bedford, Mass., USA). The assay ready frozen (ARF) Human/rat/dog NPRA HEK JumpIn Stable frozen cells (low passage number 5-11) were prepared in-house.
Compounds and cells were incubated at 37° C. with 5% CO2 for 1 hour, after which the cells were lysed and cGMP was captured using a CisBio cGMP HTRF assay kit. The TRF signal was measured with an Envision® plate reader (Perkin Elmer)(emission set to 615 and 665 nm) after 1 hour incubation at ambient temperature. The TRF signal was converted to [cGMP] through the use of a cGMP calibration curve on each microplate. EC50's were generated from the resulting dose response curves by use of a 4 parameter logistic algorithm.
hNPRA EC50 (nM) are were determined for the compounds of Example 1 through 273 and are reported in the Experimental section of this application.
Background: In TR-FRET formats the signal depends on donor and acceptor labels being close together.
Broadly, the EC50 is the concentration that produces a half-maximal response. High values mean weaker potency, low ones greater potency. Consider `CC(C)[C@]1(F)CCc2nc3c(F)cc(C(=O)N[C@H](CCN4CCC(C(C)(C)O)CC4)c4ccc(-c5ccnnc5)nc4)cc3cc2C1` (racemic) [Example 47, rac-(7S)-4,7-difluoro-7-isopropyl-N-[rac-(1R)-3-[4-(1-hydroxy-1-methyl-ethyl)piperidin-1-ium-1-yl]-1-(6-pyridazin-4-yl-3-pyridyl)propyl]-6,8-dihydro-5H-acridine-2-carboxamide;2,2,2-trifluoroacetate], for which a half-maximal response (EC50) required 188 nM.
The compound `CC(C)[C@]1(F)CCc2nc3c(F)cc(C(=O)N[C@H](CCN4CCC5(CC[C@H](O)C5)CC4)c4ccc(-c5ccnnc5)nc4)cc3cc2C1` (racemic) [Example 48, rac-(7S)-4,7-difluoro-7-isopropyl-N-[rac-(1R)-1-(6-pyridazin-4-yl-3-pyridyl)-3-[rac-(3S)-3-hydroxy-8-azaspiro[4.5]decan-8-yl]propyl]-6,8-dihydro-5H-acridine-2-carboxamide] yielded an EC50 of 105 nM.
Compound `CC(C)[C@]1(F)CCc2nc3c(F)cc(C(=O)N[C@H](CCN4CCC5(CC[C@@H](O)C5)CC4)c4ccc(-c5ccnnc5)nc4)cc3cc2C1` (racemic) [Example 49, rac-(7S)-4,7-difluoro-7-isopropyl-N-[rac-(1R)-1-(6-pyridazin-4-yl-3-pyridyl)-3-[rac-(3R)-3-hydroxy-8-azaspiro[4.5]decan-8-yl]propyl]-6,8-dihydro-5H-acridine-2-carboxamide] displayed an EC50 of 98.5 nM.
As for `CC(C)[C@]1(F)CCc2nc3c(F)cc(C(=O)N[C@H](CCN4CCC5(CC4)COC5)c4ccc(-c5ccnnc5)nc4)cc3cc2C1` (racemic) [Example 50, rac-(7S)-4,7-difluoro-7-isopropyl-N-[rac-(1R)-3-(2-oxa-7-azaspiro[3.5]nonan-7-yl)-1-(6-pyridazin-4-yl-3-pyridyl)propyl]-6,8-dihydro-5H-acridine-2-carboxamide], the figure is 240 nM; as for `COCCCC1CCN(CC[C@@H](NC(=O)c2cc(F)c3nc4c(cc3c2)C[C@](F)(C(C)C)CC4)c2ccc(-c3ccnnc3)nc2)CC1` (racemic) [Example 51, rac-(7S)-4,7-difluoro-7-isopropyl-N-[rac-(1R)-3-[4-(3-methoxypropyl)-1-piperidyl]-1-(6-pyridazin-4-yl-3-pyridyl)propyl]-6,8-dihydro-5H-acridine-2-carboxamide], 175 nM.
`CC(C)[C@]1(F)CCc2nc3c(F)cc(C(=O)N[C@H](CCN4CCC5(O)CCCCC5C4)c4ccc(-c5ccnnc5)nc4)cc3cc2C1` (mixture of isomers) [Example 52, rac-(7S)-4,7-difluoro-7-isopropyl-N-[rac-(1R)-3-(4a-hydroxy-1,3,4,5,6,7,8,8a-octahydroisoquinolin-2-yl)-1-(6-pyridazin-4-yl-3-pyridyl)propyl]-6,8-dihydro-5H-acridine-2-carboxamide]: it took 258 nM to reach a half-maximal effect (EC50).
The figure for `CC(C)[C@]1(F)CCc2nc3c(F)cc(C(=O)N[C@H](CCN4CCCCC4CCO)c4ccc(-c5ccnnc5)nc4)cc3cc2C1` (mixture of isomers) [Example 53, rac-(7S)-4,7-difluoro-7-isopropyl-N-[rac-(1R)-3-[2-(2-hydroxyethyl)-1-piperidyl]-1-(6-pyridazin-4-yl-3-pyridyl)propyl]-6,8-dihydro-5H-acridine-2-carboxamide] is 98.1 nM; for `CC(C)[C@]1(F)CCc2nc3c(F)cc(C(=O)N[C@H](CCN4CCC(C(O)C5(CO)CC5)CC4)c4ccc(-c5ccnnc5)nc4)cc3cc2C1` (mixture of isomers) [Example 54, rac-(7S)-4,7-difluoro-7-isopropyl-N-[rac-(1R)-3-[4-[hydroxy-[1-(hydroxymethyl)cyclopropyl]methyl]-1-piperidyl]-1-(6-pyridazin-4-yl-3-pyridyl)propyl]-6,8-dihydro-5H-acridine-2-carboxamide] it is 91.1 nM; for `CC(C)[C@]1(F)CCc2nc3c(F)cc(C(=O)N[C@H](CCN4CCC5(CCCO5)CC4)c4ccc(-c5ccnnc5)nc4)cc3cc2C1` (racemic) [Example 55, rac-(7S)-4,7-difluoro-7-isopropyl-N-[rac-(1R)-3-(1-oxa-8-azaspiro[4.5]decan-8-yl)-1-(6-pyridazin-4-yl-3-pyridyl)propyl]-6,8-dihydro-5H-acridine-2-carboxamide] it is 344 nM.
The compound `CC(C)C1CCN(CC[C@@H](NC(=O)c2cc(F)c3nc4c(cc3c2)C[C@](F)(C(C)C)CC4)c2ccc(-c3ccnnc3)nc2)CC1` (racemic) [Example 56, rac-(7S)-4,7-difluoro-7-isopropyl-N-[rac-(1R)-3-(4-isopropyl-1-piperidyl)-1-(6-pyridazin-4-yl-3-pyridyl)propyl]-6,8-dihydro-5H-acridine-2-carboxamide] gave a 50% effective concentration (EC50) of 258 nM.
As for `CC(C)[C@]1(F)CCc2nc3c(F)cc(C(=O)N[C@H](CCN4CCCOCC4)c4ccc(-c5ccnnc5)nc4)cc3cc2C1` (racemic) [Example 57, rac-(7S)-4,7-difluoro-7-isopropyl-N-[rac-(1R)-3-(1,4-oxazepan-4-yl)-1-(6-pyridazin-4-yl-3-pyridyl)propyl]-6,8-dihydro-5H-acridine-2-carboxamide], the figure is 142 nM.
As for `CC(C)[C@]1(F)CCc2nc3c(F)cc(C(=O)N[C@H](CCN4CCCCC4CO)c4ccc(-c5ccnnc5)nc4)cc3cc2C1` (mixture of isomers) [Example 58, rac-(7S)-4,7-difluoro-7-isopropyl-N-[rac-(1R)-3-[2-(hydroxymethyl)-1-piperidyl]-1-(6-pyridazin-4-yl-3-pyridyl)propyl]-6,8-dihydro-5H-acridine-2-carboxamide], the figure is 79.7 nM; as for `CC(C)[C@]1(F)CCc2nc3c(F)cc(C(=O)N[C@H](CCN4CCCCC4CN(C)C)c4ccc(-c5ccnnc5)nc4)cc3cc2C1` (mixture of isomers) [Example 59, rac-(7S)-4,7-difluoro-7-isopropyl-N-[rac-(1R)-3-[2-[(dimethylamino)methyl]-1-piperidyl]-1-(6-pyridazin-4-yl-3-pyridyl)propyl]-6,8-dihydro-5H-acridine-2-carboxamide], 434 nM.
